Values of other authors as cited in patent publication US20050065133A1, “Pharmaceutical compositions and methods comprising combinations of 2-alkylidene-19-nor-vitamin D derivatives and an EP2 or EP4 selective agonist” (Pfizer Inc, priority 2003, published 2005).
Where two headings read alike, the source gives them in different places.

How the values were obtained:
Male weanling rats = conditions: for Serum Calcium (mg/100 ml): intraperitoneal, vitamin D-deficient low-calcium diet, 24 h after last dose, mean ± SEM
[1] = test system: Male Holtzman strain weanling rats; conditions: single intrajugular injection, 650 pmol, 24 h later, mean ± SEM

| SMILES | Serum Calcium (mg/100 ml) (Male weanling rats; 130 pmol/day/7 days) | Serum Calcium (mg/100 ml) (Male weanling rats; 260 pmol/day/7 days) | Serum Calcium (mg/100 ml) [1] [mg/100 ml] | selectivity for bone calcium mobilization over intestinal calcium transport, in words (Male weanling rats; chronic 7-day dosing) | bone calcium mobilization activity relative to 1,25-(OH)2D3 (Male weanling rats; chronic 7-day dosing, stated as likely) | bone calcium mobilization, in words (Male weanling rats; given for 7 days in a chronic mode, 130 and 260 pmol/day) | inducing differentiation of HL-60 cells to the monocyte, in words (HL-60 cells) | Serum Calcium (mg/100 ml) (Male weanling rats; 260 pmol/day/7 days, listed as 2-methylene-19-nor-20S-1,25-(OH)2D3) |
| --- | --- | --- | --- | --- | --- | --- | --- | --- |
| C=C1/C(=C\C=C2/CCC[C@]3(C)[C@@H]([C@H](C)CCCC(C)(C)O)CC[C@@H]23)C[C@@H](O)C[C@@H]1O [1,25-(OH)2D3, 1,25-dihydroxyvitamin D3, reference compound] | 13.8 | 7.2 ± 0.5 | 5.7 ± 0.2 |  |  |  |  |  |
| C=C1[C@H](O)CC(=C/C=C2\CCC[C@]3(C)[C@@H]([C@H](C)CCCC(C)(C)O)CC[C@@H]23)C[C@H]1O [2-Methylene-19-Nor-1,25-(OH)2D3, 1α,25-dihydroxy-2-methylene-19-nor-vitamin D3] | 9.9 ± 0.2 | 9.6 ± 0.3 | 6.4 ± 0.1 | selective for the mobilization of calcium from bone | 10-100 times | extremely strong | activity similar to 1,25-(OH)2D3 |  |
| C=C1[C@H](O)CC(=C/C=C2\CCC[C@]3(C)[C@@H]([C@@H](C)CCCC(C)(C)O)CC[C@@H]23)C[C@H]1O [2-Methylene-19-Nor-20S-1,25-(OH)2D3, (20S)-1α,25-dihydroxy-2-methylene-19-nor-vitamin D3] | 13.8 ± 0.5 | 14.4 ± 0.6 | 8.0 ± 0.1 | selective for the mobilization of calcium from bone |  |  | extremely potent | 14 |
